Laboratory results: ChEMBL document CHEMBL1201862, “PubChem BioAssay data set” (2004)
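Following 48 hours of exposure in 96-well plates, responses at five concentrations were used to interpolate endpoints linearly. Abbreviation: GI50, concentration required for 50% inhibition of growth.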 Calls of active or inactive are those of the source. No stated cut-off is given here; in the data, active = GI50 up to about 1.1 µM and inactive = higher.

Tests used:
Test in all cases: NCI tumour cell line growth inhibition, 48 h
A549 = system: A549
ACHN = system: ACHN
COLO 205 = system: COLO 205
IGROV-1 = system: IGROV-1
KM-20L2 = system: KM-20L2
M14 = system: M14
MOLT-4 = system: MOLT-4
Malme-3M = system: Malme-3M
OVCAR-4 = system: OVCAR-4
OVCAR-5 = system: OVCAR-5
RPMI-8226 = system: RPMI-8226
RXF 393 = system: RXF 393
SF-295 = system: SF-295
SF-539 = system: SF-539
SK-OV-3 = system: SK-OV-3
TK-10 = system: TK-10
SK-MEL-28 = system: SK-MEL-28

Measured: GI50

CN1CCc2c1nc(-c1ccccc1)c1c2N(C)CC1
inactive: A549 > 100 µM | ACHN > 100 µM | COLO 205 34.7 µM | IGROV-1 > 100 µM | KM-20L2 52.8 µM | M14 44.8 µM | MOLT-4 38.1 µM | Malme-3M 91.4 µM | OVCAR-4 57 µM | OVCAR-5 > 100 µM | RPMI-8226 39.6 µM | RXF 393 43.9 µM | SF-295 30.1 µM | SF-539 60.8 µM | SK-OV-3 > 100 µM | TK-10 > 100 µM

CC(=O)OCC1OC(N=[N+]=[N-])C(OC(C)=O)C(OC(C)=O)C1OC1OC(COC(C)=O)C(OC(C)=O)C(OC(C)=O)C1OC(C)=O (stereo unspecified)
inactive: A549 > 100 µM | ACHN > 100 µM | COLO 205 > 100 µM | IGROV-1 > 100 µM | KM-20L2 > 100 µM | M14 > 100 µM | MOLT-4 > 100 µM | Malme-3M > 100 µM | OVCAR-4 > 100 µM | OVCAR-5 > 100 µM | RPMI-8226 > 100 µM | RXF 393 35.7 µM | SF-295 > 100 µM | SF-539 58.6 µM | SK-MEL-28 > 100 µM | SK-OV-3 > 100 µM | TK-10 81.5 µM

O=C1CCC(Cl)=CC2CCCN12 (stereo unspecified)
inactive: A549 > 100 µM | ACHN > 100 µM | COLO 205 > 100 µM | IGROV-1 > 100 µM | KM-20L2 > 100 µM | M14 > 100 µM | MOLT-4 > 100 µM | Malme-3M > 100 µM | OVCAR-5 > 100 µM | RPMI-8226 > 100 µM | RXF 393 > 100 µM | SF-539 > 100 µM | SK-MEL-28 > 100 µM | SK-OV-3 > 100 µM | TK-10 > 100 µM

FC(F)(F)c1cccc2ns[s+]c12
inactive: A549 > 100 µM | ACHN > 100 µM | COLO 205 > 100 µM | IGROV-1 > 100 µM | KM-20L2 > 100 µM | M14 > 100 µM | MOLT-4 > 100 µM | Malme-3M > 100 µM | OVCAR-4 > 100 µM | OVCAR-5 > 100 µM | RXF 393 > 100 µM | SF-295 > 100 µM | SF-539 > 100 µM | SK-MEL-28 > 100 µM | SK-OV-3 > 100 µM | TK-10 > 100 µM

O=C(CC1C(=O)Nc2ccccc2[S+]1[O-])Nc1cc(Cl)ccc1Cl (stereo unspecified)
inactive: A549 > 100 µM | ACHN > 100 µM | IGROV-1 > 100 µM | KM-20L2 > 100 µM | M14 > 100 µM | MOLT-4 > 100 µM | Malme-3M > 100 µM | OVCAR-5 > 100 µM | RPMI-8226 > 100 µM | RXF 393 > 100 µM | SF-295 > 100 µM | SF-539 > 100 µM | SK-MEL-28 > 100 µM | TK-10 > 100 µM

Nn1c(S)nnc1N/N=C1/C(=O)Nc2c(Cl)cc(Cl)cc21
inactive: A549 > 100 µM | ACHN 76.9 µM | COLO 205 > 100 µM | IGROV-1 92.9 µM | KM-20L2 81.8 µM | M14 > 100 µM | MOLT-4 37.2 µM | Malme-3M > 100 µM | OVCAR-4 > 100 µM | OVCAR-5 > 100 µM | RPMI-8226 > 100 µM | RXF 393 17.9 µM | SF-295 > 100 µM | SF-539 > 100 µM | SK-OV-3 37.2 µM | TK-10 > 100 µM

CCC1(O)CC(c2ccccc2)N(C)C(c2ccccc2)C1 (stereo unspecified)
inactive: A549 > 100 µM | ACHN > 100 µM | COLO 205 > 100 µM | IGROV-1 > 100 µM | KM-20L2 > 100 µM | M14 > 100 µM | MOLT-4 > 100 µM | Malme-3M > 100 µM | OVCAR-4 > 100 µM | OVCAR-5 > 100 µM | RXF 393 > 100 µM | SF-295 > 100 µM | SF-539 > 100 µM | SK-MEL-28 > 100 µM | SK-OV-3 > 100 µM | TK-10 > 100 µM

C[Si](C)(C)/C=C/CN1C(=O)CCC1O (stereo unspecified)
inactive: A549 > 100 µM | ACHN > 100 µM | COLO 205 > 100 µM | IGROV-1 > 100 µM | KM-20L2 > 100 µM | M14 > 100 µM | MOLT-4 > 100 µM | Malme-3M > 100 µM | OVCAR-4 > 100 µM | OVCAR-5 > 100 µM | RPMI-8226 > 100 µM | RXF 393 > 100 µM | SF-295 > 100 µM | SF-539 > 100 µM | SK-MEL-28 > 100 µM | SK-OV-3 > 100 µM | TK-10 > 100 µM

CC1C=CC(C(N)C(=O)O)O1 (stereo unspecified)
inactive: A549 > 100 µM | ACHN > 100 µM | COLO 205 > 100 µM | IGROV-1 > 100 µM | KM-20L2 > 100 µM | M14 > 100 µM | MOLT-4 > 100 µM | Malme-3M > 100 µM | OVCAR-4 > 100 µM | OVCAR-5 > 100 µM | RPMI-8226 > 100 µM | RXF 393 > 100 µM | SF-295 > 100 µM | SF-539 > 100 µM | SK-MEL-28 > 100 µM | SK-OV-3 > 100 µM

CCCCNC1=C(C(=O)OCC)/C(=N/NC(=O)c2ccccc2O)CO1
inactive: A549 47.8 µM | COLO 205 > 100 µM | IGROV-1 8.99 µM | KM-20L2 > 100 µM | M14 37.2 µM | MOLT-4 40.1 µM | Malme-3M 35.2 µM | OVCAR-4 19.4 µM | OVCAR-5 59.7 µM | RPMI-8226 86.7 µM | RXF 393 23.8 µM | SF-295 76.6 µM | SF-539 11.8 µM | SK-MEL-28 18.5 µM | SK-OV-3 > 100 µM | TK-10 98.4 µM

CCc1cccc(C(C)CC)c1NC(=O)CC1C(=O)Nc2ccccc2S1(=O)=O (stereo unspecified)
inactive: A549 24.8 µM | ACHN 23.6 µM | COLO 205 20.9 µM | IGROV-1 20.6 µM | KM-20L2 25.2 µM | M14 41.4 µM | MOLT-4 11.8 µM | Malme-3M 36.5 µM | OVCAR-4 12.8 µM | OVCAR-5 70.1 µM | RPMI-8226 5.38 µM | SF-295 25.1 µM | SF-539 21.5 µM | SK-MEL-28 53.2 µM | SK-OV-3 43.2 µM | TK-10 28.7 µM

CC1OC(n2ccc(=O)[nH]c2=O)C=C(OC(=O)c2ccccc2)C1=O (stereo unspecified)
inactive: A549 39.3 µM | ACHN 76.7 µM | COLO 205 > 100 µM | IGROV-1 > 100 µM | KM-20L2 73.5 µM | M14 88.9 µM | MOLT-4 > 100 µM | Malme-3M 74.6 µM | OVCAR-4 18.9 µM | RPMI-8226 > 100 µM | RXF 393 95.5 µM | SF-295 51.1 µM | SF-539 > 100 µM | SK-MEL-28 48.6 µM | SK-OV-3 > 100 µM | TK-10 49 µM
